Assay [1] relates to S. cerevisiae (yeast). In words: MZOnano-QCM monitoring of antifungal drug effects on yeast. The class given is cell-based. The settings on record: drug introduced at 330 min after initial growth seeding. An excerpt: (§1) The result using various embodiments in this patent document accurately detects both drug effects in a rapid manner.
(§2) This is due to the fact that the spectroscopic method relies on light absorption by the suspended cells, and dead yeast cells remain in suspension, thus contributing to the absorption.

Assay [2] concerns S. cerevisiae (yeast). Briefly: Spectrophotometry (OD600) monitoring of antifungal drug effects on yeast. The conditions noted are these: patent calls the identification incorrect. It counts as cell-based.
Source text: as §1, §2

In assay [3] the test system is S. epidermidis. Briefly: Standard broth dilution assay (MIC), S. epidermidis. It counts as cell-based. The settings on record: Staphylococcus epidermidis. (Dilution methods test growth across graded concentrations, often in twofold steps.)
In assay [4] the test system is P. aeruginosa. The settings on record: FIG. 15(b). The protocol:
The sensor was placed inside an incubator at 37° C. while automatically measuring the acoustic spectrum every 15 minutes for 3 hours.

For assay [5], the system named is VP16-sensitive ALL cell line (CEM). In words: MZOnano-QCM 48-hour monitoring of drug sensitive ALL (CEM) cells. It counts as cell-based. As for the experimental part:
(§3) The third example uses the drug VP16 (also known as etoposide, an anticancer agent), VP16-sensitive ALL cell line (CEM) and its VP16-resistant derivative cell line (CEM-V1) as a model for monitoring the effect of anticancer agents on the growth of cancer cells using the MZOnano-QCM sensor device, where the Mg composition x in MZO is 0.03.
For all of the experiments in this example, an initial seeding density of 4×10^5 cells in 2 mL of medium is used, the leukemia cell growth using the MZOnano-QCM is monitored dynamically for 48 hours. The drug (VP16) was introduced into the cell culture after 4 hours after the initial seeding. With reference to FIG. 7, the time-dependent frequency shift of the sensor for the entire 48-hour monitoring period of the drug sensitive CEM cells is shown. In the no-drug case, the frequency shift increases exponentially from 0-40 hours (indicating exponential cell accumulation on the sensing area) and then the frequency shift rate decreases showing saturation of the cell growth. In the case where the drug is introduced into the cell culture in the device, it is observed that the cells continue to grow after the drug has been introduced (4 hours after initial seeding), however, it is seen that the drug has taken effect 16 hours after the drug has been introduced.

The test system of assay [6] is VP16-resistant derivative cell line (CEM-V1). Briefly: MZOnano-QCM 48-hour monitoring of drug resistant ALL (CEM-V1) cells. It counts as cell-based.
Source text: as §3
The same experiment can be repeated on drug resistant CEM leukemia cells (CEM-V1) using both the MZOnano-QCM sensor and the viability analyzer, and the monitoring can be conducted for 48 hours. […] The drug was added into the cell culture at 4 hours after the initial seeding of 4×10^5 cells. […] The various configurations used in the example in FIG. 11 are the same as those described with respect to FIG. 8, and the various configurations used in the example in FIG. 12 are the same as those described with respect to FIG. 9.

Assay [7] relates to resistant E. coli. In words: MZOnano-QCM detection of antimicrobial resistance of resistant E. coli. It counts as cell-based. The conditions noted are these: ampicillin-resistant cells, 256 μg/mL. The protocol:
(§4) The first example illustrates the application of a magnesium zinc oxide (MZO) nanostructure-modified quartz crystal microbalance (MZOnano-QCM) biosensor disclosed in this document with reference to FIGS. 1A and 1B to dynamically monitor antibiotic effects on sensitive and resistant E. coli cells. MZO-nanostructures were grown on a standard QCM top-electrode using metal-organic chemical-vapor deposition. ZnO and MZO nanostructured-films are chosen for their multi-functionality and biocompatibility. Their surface-wettability and morphology can be controlled, offering high-sensitivity to various biological/biochemical species. MZO can withstand a larger pH range than ZnO does. Combining advantages of MZO nanostructures with the dynamic impedance spectrum capability of QCM makes MZOnano-QCM a highly-sensitive dynamic biosensor well-suited for AMR detection. The growth of E. coli on ZnO and MZO nanostructures was determined by 90-minute incubation.
(§5) FIGS. 4A-4D show the detection of antibiotic effects on E. coli using regular QCM, ZnOnano-QCM and MZOnano-QCM. The regular QCM failed detection due to low sensitivity while both ZnOnano- and MZOnano-QCM enable accurate detection of bacterial count during active growth though frequency shifts (Δf). The MZOnano-QCM offered four-fold higher sensitivity than ZnOnano-QCM. […]

Assay [8] relates to antibiotic-sensitive E. coli. Briefly: MZOnano-QCM detection of antibiotic effects on sensitive E. coli. It counts as cell-based. The settings on record: ampicillin-sensitive cells, 256 μg/mL. As for the experimental part:
as §4, §5

In brackets after ≈: the same amount, converted by molar mass.

As to `Clc1ccc(COC(Cn2ccnc2)c2ccc(Cl)cc2Cl)c(Cl)c1` (stereo not drawn) [miconazole], the “drug effect on yeast detected by sensor” value in assay [1] is on record as “growth inhibition effects”.
On to `C[C@@H]1[C@H](O)[C@@H](C)/C=C/C=C/C=C/C=C/C=C/C=C/C=C/[C@H](O[C@@H]2O[C@H](C)[C@@H](O)[C@H](N)[C@@H]2O)C[C@@H]2O[C@](O)(C[C@@H](O)C[C@@H](O)[C@H](O)CC[C@@H](O)C[C@@H](O)CC(=O)O[C@H]1C)C[C@H](O)[C@H]2C(=O)O` [amphotericin], for which the “drug effect on yeast as identified by OD600 method” value in assay [2] is reported as “fungi-static”. For the same molecule, the “drug effect on yeast detected by sensor” value in assay [1] is recorded as “cell-killing effects”.
In general, MIC refers to the lowest concentration found to suppress growth. In turn, `O=C(O)c1cn(C2CC2)c2cc(N3CCNCC3)c(F)cc2c1=O` [ciprofloxacin] registered a minimal inhibitory concentration (MIC) in assay [3] of 0.05 µg/mL (≈ 0.151 µM). The “motional resistance in presence or absence of drug” value in assay [4] was “dramatically different”.
On to `COc1cc([C@@H]2c3cc4c(cc3[C@@H](O[C@@H]3O[C@@H]5CO[C@@H](C)O[C@H]5[C@H](O)[C@H]3O)[C@H]3COC(=O)[C@H]23)OCO4)cc(OC)c1O` [VP16, etoposide], for which, in assay [5] (20 hours to 48 hours), the “cell response (frequency shift) after drug took effect” value is recorded as “cells start to die (or stop to proliferate)”. In assay [5] (drug introduced 4 hours after initial seeding of 4×10^5 cells), the “time after drug introduction at which drug has taken effect” value is 16 h. Further, the “cell response (frequency shift trend) in the presence of the drug” value in assay [6] (48 hours monitoring) is “continuous cell growth”. In addition, the “time after addition of drug at which frequency shift started to decrease compared to no-drug control” value in assay [6] (drug added 4 hours after initial seeding of 4×10^5 cells) is roughly 15 h.
Turning to `CC1(C)S[C@@H]2[C@H](NC(=O)[C@H](N)c3ccccc3)C(=O)N2[C@H]1C(=O)O` [ampicillin], in assay [7], the “Δf response upon treatment” value is “continued increasing”. For the same molecule, in assay [8], the “time within which Δf declined upon treatment” value is recorded as no more than 10 min and the “time within which Δf stopped increasing upon treatment” value was no more than 5 min.

The record behind these values is patent US10801879B2, “Magnesium zinc oxide nanostructure modified biosensor and monitoring of response of cell population to an agent using the same” (Rutgers, The State University of New Jersey, priority 2015, dated 2020).
